This note sets out measurements from paper PMC9832505, “Cell Adhesion Motif-Functionalized Lipopeptides: Nanostructure and Selective Myoblast Cytocompatibility” (Biomacromolecules, 2022).

Residues, ends and D or L forms follow the SMILES beside them.

Series [1] deals with L929 murine fibroblast. Description: MTT cytotoxicity assay on L929 fibroblasts. As to conditions: for cell survival: 1 wt %; for cell viability: 0.1 wt %. The format is cell-based, mouse. How it is done:
(§1) L929 murine fibroblast and C2C12 immortalized mouse myoblast cell lines (both from ECACC General Cell Collection) were grown in Dulbecco’s modified Eagle’s medium (DMEM) supplemented with 10% fetal bovine serum, 20 mM HEPES, and 1% GlutaMAX. The cells were maintained at pH 7.4, 37 °C, and 5% CO2 in 25 cm^2 cell culture flasks.
(§2) Cells were seeded in 96-well plates at a density of 0.6 × 10^4 cells per well. Cells were then treated with peptides dissolved in the medium at the concentrations of 0.1 and 1 × 10^–4 wt %. To test cytocompatibility in the presence of the hydrogels, wells were filled with 1 wt % mG and pG hydrogels before seeding. At the end of the treatment (after 24 or 72 h), cell viability was assessed using an MTT [3-(4, 5-dimethylthiazolyl-2)-2, 5-diphenyltetrazolium bromide] assay. In brief, after the removal of the culture medium, MTT, dissolved in DMEM at a concentration of 0.5 mg/mL, was added to the cells and incubated for 4 h at 37 °C. The resulting formazan crystals were dissolved by adding dimethyl sulfoxide. Absorbance values of blue formazan were determined at 560 nm using an automatic plate reader. Cell survival was expressed as a percentage of viable cells in the presence of peptides, compared to control cells grown in their absence. The assay was repeated three times, and the results were averaged. Statistical significance was tested using multiple Welch’s t-tests. All analyses were conducted using Prism 7.

The subject of series [2] is C2C12 immortalized mouse myoblast. Description: MTT cytotoxicity assay on C2C12 myoblasts. In kind it is cell-based. The following applies: for cell viability: 72 h, 0.1 wt %; for tolerance of hydrogels in words: C2C12 on hydrogels (1 wt %), 24 h and 72 h, MTT. The procedure:
as §1, §2
Background: Tetrazolium assays rely on reduction of a dye to a coloured formazan, in cell work by metabolically active cells.

Experiment in series [3]: not given
The source holds these as a separate data set.

Experiment in series [4]: not given
This is another data set of the same source.

`CCCCCCCCCCCCCC(=O)NCC(=O)NCC(=O)NCC(=O)N[C@@H](CCCNC(=N)N)C(=O)NCC(=O)N[C@@H](CC(=O)O)C(=O)N[C@@H](CO)C(=O)O` [mG, C14-GGGRGDS] (HELM PEPTIDE1{[CCCCCCCCCCCCCC(=O)[*:2]].G.G.G.R.G.D.S}$$$$V2.0) returned a nanotape mean thickness in hydrogel of 13.6 nm. In series [1] (24 h), the cell survival came to 92.6 ± 8.8%. Besides, in series [1] (72 h), the cell viability stood at 30.7 ± 4.7% and the cell survival is 94.6 ± 12.6%. In addition, in series [2], the cell viability worked out at 84.4 ± 9.6% and the “tolerance of hydrogels in words” value is recorded as “reasonably well tolerated”.

Consider `CCCCCCCCCCCCCCCC(=O)N[C@@H](Cc1c[nH]c2ccccc12)C(=O)NCC(=O)NCC(=O)N[C@@H](CCCNC(=N)N)C(=O)NCC(=O)N[C@@H](CC(=O)O)C(=O)N[C@@H](CO)C(=O)O` [pW, C16-WGGRGDS] (HELM PEPTIDE1{[CCCCCCCCCCCCCCCC(=O)[*:2]].W.G.G.R.G.D.S}$$$$V2.0), for which the fiber mean diameter in series [3] is 4 nm. Besides, the figures for the cell viability in series [1] (72 h) and in series [2] were 36.3 ± 5.1% and 73.3 ± 2.8%, respectively.

Molecule `CCCCCCCCCCCCCC(=O)N[C@@H](Cc1c[nH]c2ccccc12)C(=O)NCC(=O)NCC(=O)N[C@@H](CCCNC(=N)N)C(=O)NCC(=O)N[C@@H](CC(=O)O)C(=O)N[C@@H](CO)C(=O)O` [mW, C14-WGGRGDS] (HELM PEPTIDE1{[CCCCCCCCCCCCCC(=O)[*:2]].W.G.G.R.G.D.S}$$$$V2.0) had a nanotube radius in series [4] of 750 Å. Also, the cell viability is listed as 28.1 ± 3.1% in series [1] (72 h) and 72.3 ± 10.2% in series [2].

`CCCCCCCCCCCCCCCC(=O)NCC(=O)NCC(=O)NCC(=O)N[C@@H](CCCNC(=N)N)C(=O)NCC(=O)N[C@@H](CC(=O)O)C(=O)N[C@@H](CO)C(=O)O` [pG, C16-GGGRGDS] (HELM PEPTIDE1{[CCCCCCCCCCCCCCCC(=O)[*:2]].G.G.G.R.G.D.S}$$$$V2.0): in series [1] (72 h), the cell viability is on record as 31.8 ± 5.1%. Further, in series [2], the cell viability was 86.0 ± 6.8% and the “tolerance of hydrogels in words” value is recorded as “reasonably well tolerated”.

A word on the cell viability: it is a read-out of living cells in per cent, often relative to untreated cells. A higher cell viability goes with less harm to the cells.
